System: p21 mRNA
Test: Radiation-induced p21 mRNA induction in heparinized whole blood incubated with dietary supplements (FIG. 5)
Type: cell-based, human
Details: heparinized whole blood of a single individual, EGC 10 μM, rLA 10 μg/mL, Cur 1 μM; for radiation-induced p21 expression: 1 hour at 37° C. with supplement, 1 Gy ionizing radiation, another 2 hours at 37° C.; for p21 levels on control blood (no radiation) / background p21 levels: incubated with supplement at 37° C., without radiation
Method: The protocol for measuring mRNA levels employed in this example was as follows. The assay procedure consists of 3 major steps: 1) leukocyte isolation and lysis on filterplates, 2) mRNA isolation, reverse primer hybridization, and cDNA synthesis in oligo(dT)-immobilized microplates, and 3) real time quantitative PCR. In brief, filterplates were placed over collection plates, and 150 μL 5 mmol/L Tris, pH 7.4, was applied to wet the filter membranes. Following centrifugation at 120×g for 1 min at 4° C. to remove solution from the filterplates, 50 μL of well-mixed blood samples were applied to each well and immediately centrifuged at 120×g for 2 min at 4° C., followed by washing of each well with 300 μL phosphate buffered saline (PBS) once with centrifugation at 2000×g for 5 min at 4° C. Then, 60 μL stock lysis buffer (see below), supplemented with 1% 2-mercaptoethanol (Bio Rad), 0.5 mg/mL proteinase K (Pierce), 0.1 mg/mL salmon sperm DNA (5 Prime Eppendorf/Brinkmann), 0.1 mg/mL E. coli tRNA (Sigma), […] each of specific reverse primers, and 10^7 molecules/mL of synthetic RNA34 as an internal standard, were applied to the filterplates, followed by incubation at 37° C. for 10 min. The filterplates were then placed over oligo(dT)-immobilized microplates (GenePlate, RNAture), and centrifuged at 2000×g for 5 min at 4° C. Following overnight storage at 4° C., the microplates were washed with 100 μL plain lysis buffer 3 times, and then with 150 μL wash buffer (0.5 mol/L NaCl, 10 mmol/L Tris, pH 7.4, 1 mmol/L EDTA) 3 times at 4° C. The cDNA was directly synthesized in each well by adding 30 μL buffer containing 1×RT-buffer (50 mmol/L KCl, 10 mmol/L Tris-HCl, pH 8.3, 5.5 mmol/L MgCl2, no dithiothreitol), 1.25 mmol/L each of dNTP, 4 units rRNasin, and 80 units of MMLV reverse transcriptase (Promega) (without primers), and incubation at 37° C. for 2 hours. The resultant 4 μL cDNA was directly transferred to 384-well PCR plates, to which 5 μL TaqMan universal master mix (Applied Biosystems) and 1 μL oligonucleotide cocktail (15 μmol/L each of forward and reverse primer, and 3-6 μmol/L TaqMan probe) were applied, and PCR was conducted in a PRISM 7900HT (Applied Biosystems), with one cycle of 95° C. for 10 min followed by 45 cycles of 95° C. for 30 sec, 55° C. for 30 sec, and 60° C. for 1 min. Each gene was amplified in separate wells. The cycle threshold (Ct), which was the cycle of PCR to generate certain amounts of PCR products (fluorescence), was determined using analytical software (SDS, Applied Biosystems). PCR was also conducted directly in the GenePlate using an iCycler (BioRad). […] First, heparinized whole blood was incubated with various dietary supplements at 37° C. for 1 hour (2 tubes for each compound). Then one tube was exposed to 1 Gy of ionizing radiation, then both tubes were incubated for another 2 hours at 37° C. The p21 mRNA was quantitated as described above. […] In FIG. 5, each data point is the mean ±standard deviation of p21 mRNA with ([…]) or without (◯) 1 Gy radiation. […] Data points surrounded by a circle indicate p<0.05.

Row | SMILES | radiation-induced p21 expression | p21 levels on control blood (no radiation) / background p21 levels
1 | COc1cc(/C=C/C(=O)CC(=O)/C=C/c2ccc(O)c(OC)c2)ccc1O [curcumin] | enhanced | increased
2 | O=C(O[C@@H]1Cc2c(O)cc(O)cc2O[C@@H]1c1cc(O)c(O)c(O)c1)c1cc(O)c(O)c(O)c1 [epigallocatechin gallate] | significantly enhanced | did not show any changes
3 | CCCCC/C=C\C/C=C\C/C=C\CCCCC(=O)O [γ-linoleic acid] | enhanced | increased

Source: patent US20080261207A1, “Method of Measuring Cancer Susceptibility” (priority 2004, published 2008)
